In patent US20230167073A1 (Teijin Pharma Limited, priority 2020, published 2023):

molecular target: T1, Human TRPC6 (Homo sapiens, UniProt Q9Y210); assay: Evaluation of TRPC6 channel inhibitory activity (1), FLIPR Calcium 5 Assay Kit, OAG stimulation (Compound Nos. 1-1293); assay type: cell-based; details: Human TRPC6 stably-expressing cells, OAG 30 μM, FLIPR Calcium 5 Assay Kit; read-out: Inhibitory activity (pIC50 class) (converted)
T1 construct: expressed in transfected cells
T1 sequence (Q9Y210 1-931): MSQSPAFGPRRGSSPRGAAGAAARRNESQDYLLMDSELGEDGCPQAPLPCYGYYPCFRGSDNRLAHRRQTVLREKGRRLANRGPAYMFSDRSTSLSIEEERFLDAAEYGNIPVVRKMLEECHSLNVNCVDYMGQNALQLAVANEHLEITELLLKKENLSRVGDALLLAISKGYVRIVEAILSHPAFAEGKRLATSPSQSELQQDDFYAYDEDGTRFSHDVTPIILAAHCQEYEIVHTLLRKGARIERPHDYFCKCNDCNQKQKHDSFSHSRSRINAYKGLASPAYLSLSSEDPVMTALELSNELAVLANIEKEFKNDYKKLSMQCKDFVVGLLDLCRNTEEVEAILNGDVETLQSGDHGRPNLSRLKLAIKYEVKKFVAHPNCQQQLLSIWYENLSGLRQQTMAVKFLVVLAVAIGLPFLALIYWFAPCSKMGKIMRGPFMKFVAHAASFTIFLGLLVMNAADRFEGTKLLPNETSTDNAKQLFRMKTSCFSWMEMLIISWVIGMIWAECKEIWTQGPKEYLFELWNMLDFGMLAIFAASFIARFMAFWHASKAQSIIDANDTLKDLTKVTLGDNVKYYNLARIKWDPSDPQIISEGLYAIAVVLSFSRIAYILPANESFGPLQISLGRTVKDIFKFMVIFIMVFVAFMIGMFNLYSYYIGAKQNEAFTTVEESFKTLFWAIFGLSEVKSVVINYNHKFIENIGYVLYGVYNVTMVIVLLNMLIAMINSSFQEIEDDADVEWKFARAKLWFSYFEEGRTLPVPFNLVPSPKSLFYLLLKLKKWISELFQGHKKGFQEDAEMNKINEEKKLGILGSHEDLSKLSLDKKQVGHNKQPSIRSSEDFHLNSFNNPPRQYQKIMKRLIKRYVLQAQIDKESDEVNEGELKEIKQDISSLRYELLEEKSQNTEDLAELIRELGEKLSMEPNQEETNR
How it was run: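 The FLIPR signal is maximum fluorescence after 30 μM OAG minus minimum before compound, measured in a human TRPC6 stable line loaded with Calcium 5 dye. Compounds were preincubated 20 min. pIC50 came from four-parameter logistic fitting of inhibition rates and is given as symbol ranges.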

Cc1cnc(-c2cc(Oc3cc(C#N)ccc3-c3ncc(CN)cn3)n(C)n2)s1 [compound 960, 4-[5-(aminomethyl)pyrimidin-2-yl]-3-[2-methyl-5-(5-methyl-1,3-thiazol-2-yl)pyrazol-3-yl]oxybenzonitrile] and COC(C)(C)CN(C)c1cc(Oc2cc(C#N)ccc2-c2ncc(CCN)cn2)n(C)n1 [compound 868, 4-[5-(2-aminoethyl)pyrimidin-2-yl]-3-[5-[(2-methoxy-2-methylpropyl)-methylamino]-2-methylpyrazol-3-yl]oxybenzonitrile] fall in the same range of IC50: 10 to 1000 nM for the first, 10 to 1000 nM for the second.

First: Cc1nc(Oc2cc(C#N)ccc2-c2ncc(CCN)cn2)cc(OC(C)C)n1 [compound 848, 4-[5-(2-aminoethyl)pyrimidin-2-yl]-3-(2-methyl-6-propan-2-yloxypyrimidin-4-yl)oxybenzonitrile]
Second: Cc1nc(OCC2CC2(F)F)cc(Oc2cc(C#N)ccc2-c2ncc(CCN)cn2)n1 (stereo not drawn) [compound 883, 4-[5-(2-aminoethyl)pyrimidin-2-yl]-3-[6-[(2,2-difluorocyclopropyl)methoxy]-2-methylpyrimidin-4-yl]oxybenzonitrile]
The IC50 of the first is lower: under 10 nM for the first, 10 to 1000 nM for the second.

Cc1nc(Oc2cc(C#N)ccc2-c2ccc3c(c2)CCC3N)cc(N2CCOCC2)n1 (stereo not drawn) [Compound 132, 4-(1-amino-2,3-dihydro-1H-inden-5-yl)-3-(2-methyl-6-morpholin-4-ylpyrimidin-4-yl)oxybenzonitrile] and Cc1nc(Oc2cc(C#N)ccc2-c2ccc(C3CNC3)cc2)cc(N2CCOCC2)n1 [Compound 52, 4-[4-(azetidin-3-yl)phenyl]-3-(2-methyl-6-morpholin-4-ylpyrimidin-4-yl)oxybenzonitrile] fall in the same range of IC50: 10 to 1000 nM for the first, 10 to 1000 nM for the second.

Going from Cc1cc(Oc2cc(C#N)ccc2-c2ccc(C3(O)CNC3)cn2)cc(N2CCOCC2)n1 [compound 537, 4-[5-(3-hydroxyazetidin-3-yl)pyridin-2-yl]-3-(2-methyl-6-morpholin-4-ylpyridin-4-yl)oxybenzonitrile] to N#Cc1ccc(-c2ccc(CCN)cc2)c(Oc2cnnc(N3CCOCC3)c2)c1 [Compound 50, 4-[4-(2-aminoethyl)phenyl]-3-(6-morpholin-4-ylpyridazin-4-yl)oxybenzonitrile], the IC50 falls from over 1000 nM to under 10 nM.

First: Cc1nc(Oc2cc(C#N)ccc2-n2cc(C(O)CN(C)C)cn2)cc(-c2ccccc2)n1 (stereo not drawn) [Compound 104, 4-[4-[2-(dimethylamino)-1-hydroxyethyl]pyrazol-1-yl]-3-(2-methyl-6-phenylpyrimidin-4-yl)oxybenzonitrile]
Second: Cc1nc(Oc2cc(C#N)ccc2-n2cc([C@H](O)CN)cn2)cc(-c2cccc(C(F)(F)F)c2)n1 [compound 357, 4-[4-[(1S)-2-amino-1-hydroxyethyl]pyrazol-1-yl]-3-[2-methyl-6-[3-(trifluoromethyl)phenyl]pyrimidin-4-yl]oxybenzonitrile]
The IC50 of the first is higher: over 1000 nM for the first, 10 to 1000 nM for the second.

First: CCc1cc(C(=O)c2cc(C#N)ccc2-c2ncc(CCN)cn2)n(C)n1 [compound 1025, 4-[5-(2-aminoethyl)pyrimidin-2-yl]-3-(5-ethyl-2-methylpyrazole-3-carbonyl)benzonitrile]
Second: Cn1nc(N2CCCCC2)cc1Cc1cc(C#N)ccc1-c1ncc(CN)cn1 [compound 1213, 4-[5-(aminomethyl)pyrimidin-2-yl]-3-[(2-methyl-5-piperidin-1-ylpyrazol-3-yl)methyl]benzonitrile]
The IC50 of the first is lower: under 10 nM for the first, 10 to 1000 nM for the second.

Compared with Cc1nc(Oc2cc(C#N)ccc2-c2ncc(CCN)cn2)cc(N2CCOCC2)n1 [compound 434, 4-[5-(2-aminoethyl)pyrimidin-2-yl]-3-(2-methyl-6-morpholin-4-ylpyrimidin-4-yl)oxybenzonitrile], Cc1cc(Oc2cc(C#N)c(C)cc2-c2ncc(CN)cn2)cc(N2CCOCC2)n1 [compound 899, 4-[5-(aminomethyl)pyrimidin-2-yl]-2-methyl-5-(2-methyl-6-morpholin-4-ylpyridin-4-yl)oxybenzonitrile] is higher in IC50: under 10 nM for the first, 10 to 1000 nM for the second.

First: CC(C)n1cc(Oc2cc(F)ccc2-c2ncc(CCN)cn2)cn1 [compound 981, 2-[2-[4-fluoro-2-(1-propan-2-ylpyrazol-4-yl)oxyphenyl]pyrimidin-5-yl]ethanamine]
Second: Cn1nc(N2CCCC2)cc1Oc1cc(F)ccc1-c1ncc(CCN)cn1 [compound 979, 2-[2-[4-fluoro-2-(2-methyl-5-pyrrolidin-1-ylpyrazol-3-yl)oxyphenyl]pyrimidin-5-yl]ethanamine]
The IC50 of the first is higher: 10 to 1000 nM for the first, under 10 nM for the second.

Cc1nc(Oc2cc(C#N)ccc2-c2ccc(CCN)cn2)cc(-c2ccccc2)n1 [Compound 86, 4-[5-(2-aminoethyl)pyridin-2-yl]-3-(2-methyl-6-phenylpyrimidin-4-yl)oxybenzonitrile] and Cn1nc(N)cc1Oc1cc(C#N)ccc1-c1ccc(CCN)cn1 [compound 577, 4-[5-(2-aminoethyl)pyridin-2-yl]-3-(5-amino-2-methylpyrazol-3-yl)oxybenzonitrile] fall in the same range of IC50: 10 to 1000 nM for the first, 10 to 1000 nM for the second.

Cc1cc(C(C)(C)C)nn1Cc1cc(C#N)ccc1-c1ccc(CCN)cn1 [compound 1159, 4-[5-(2-aminoethyl)pyridin-2-yl]-3-[(3-tert-butyl-5-methylpyrazol-1-yl)methyl]benzonitrile] and CC(C)OCc1cc(Oc2cc(C#N)ccc2-c2ccc(CCN)cn2)n(C)n1 [Compound 255, 4-[5-(2-aminoethyl)pyridin-2-yl]-3-[2-methyl-5-(propan-2-yloxymethyl)pyrazol-3-yl]oxybenzonitrile] fall in the same range of IC50: 10 to 1000 nM for the first, 10 to 1000 nM for the second.

Cn1nc(C2CCC2)cc1Oc1cc(C#N)ccc1-c1ccc(C(O)CN)cn1 (stereo not drawn) [Compound 276, 4-[5-(2-amino-1-hydroxyethyl)pyridin-2-yl]-3-(5-cyclobutyl-2-methylpyrazol-3-yl)oxybenzonitrile] and Cn1nc(C2CCC2)cc1Oc1cc(C#N)ccc1-c1cnc(C(O)CN)cn1 (stereo not drawn) [Compound 287, 4-[5-(2-amino-1-hydroxyethyl)pyrazin-2-yl]-3-(5-cyclobutyl-2-methylpyrazol-3-yl)oxybenzonitrile] cannot be ordered by IC50: under 10 nM for the first, under 10 nM for the second.

First: CCCCc1cc(Oc2cc(C#N)ccc2-c2ccc(C(O)CN)cn2)n(C)n1 (stereo not drawn) [compound 318, 4-[5-(2-amino-1-hydroxyethyl)pyridin-2-yl]-3-(5-butyl-2-methylpyrazol-3-yl)oxybenzonitrile]
Second: Cn1nc(C2CC2)cc1Oc1cc(C#N)ccc1-c1nc(C(O)CN)cs1 (stereo not drawn) [Compound 216, 4-[4-(2-amino-1-hydroxyethyl)-1,3-thiazol-2-yl]-3-(5-cyclopropyl-2-methylpyrazol-3-yl)oxybenzonitrile]
The IC50 of the first is lower: under 10 nM for the first, 10 to 1000 nM for the second.

First: CC(C)CNC(=O)c1cncn1Cc1cc(C#N)ccc1-c1ccc(CCN)cc1 [compound 1115, 3-[[2-[4-(2-aminoethyl)phenyl]-5-cyanophenyl]methyl]-N-(2-methylpropyl)imidazole-4-carboxamide]
Second: Cc1nc(Oc2cc(C#N)ccc2-n2cc([C@@H](O)CN)cn2)cc(OC2CCCCC2)n1 [Compound 266, 4-[4-[(1R)-2-amino-1-hydroxyethyl]pyrazol-1-yl]-3-(6-cyclohexyloxy-2-methylpyrimidin-4-yl)oxybenzonitrile]
The IC50 of the first is higher: over 1000 nM for the first, under 10 nM for the second.

Work on Cn1nc(N2CCOCC2)cc1Oc1cc(F)ccc1-c1ncc(CN)cn1 [compound 974, [2-[4-fluoro-2-(2-methyl-5-morpholin-4-ylpyrazol-3-yl)oxyphenyl]pyrimidin-5-yl]methanamine] yielded an IC50 of 10 to 1000 nM.
